Measurements as given in PubChem BioAssay AID1963869 (Molecular Pharmacology Branch, DTP, NCI, 2024).

System: KRAS patient-derived spheroids with HUVEC/MSC, viability
Assay: Anticancer human tumor 323965-272-R-J2-PDC patient-derived pancreatic carcinoma cell line growth inhibition [KRAS2]
Settings: for IC50: curve of first compound; for viability, T/C: stronger effect = lower value
Outline: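 KRAS-mutant tumor cells were grown as spheroids with HUVEC endothelial cells and human MSCs as stroma. Targeted agents were tested alone and with KRAS pathway inhibitors. Doses started at or near clinical Cmax, or 10 microM, descending half-log.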

[1] = second compound 0.1 µM, first compound 0.0316 µM
[2] = second compound 0.1 µM, first compound 0.1 µM
[3] = second compound 0.1 µM, first compound 0.316 µM
[4] = second compound 0.1 µM, first compound 1 µM
[5] = second compound 0.1 µM, first compound 3.16 µM
[6] = second compound 0.316 µM, first compound 0.0316 µM
[7] = second compound 0.316 µM, first compound 0.1 µM
[8] = second compound 0.316 µM, first compound 0.316 µM
[9] = second compound 0.316 µM, first compound 1 µM
[10] = second compound 0.316 µM, first compound 3.16 µM
[11] = second compound 1 µM, first compound 0.0316 µM
[12] = second compound 1 µM, first compound 0.1 µM
[13] = second compound 1 µM, first compound 0.316 µM
[14] = second compound 1 µM, first compound 1 µM
[15] = second compound 1 µM, first compound 3.16 µM
[16] = second compound 3.16 µM, first compound 0.0316 µM
[17] = second compound 3.16 µM, first compound 0.1 µM
[18] = second compound 3.16 µM, first compound 0.316 µM
[19] = second compound 3.16 µM, first compound 1 µM
[20] = second compound 3.16 µM, first compound 3.16 µM
[21] = second compound 10 µM, first compound 0.0316 µM
[22] = second compound 10 µM, first compound 0.1 µM
[23] = second compound 10 µM, first compound 0.316 µM
[24] = second compound 10 µM, first compound 1 µM
[25] = second compound 10 µM, first compound 3.16 µM
[26] = second compound 0.1 µM, first compound 10 µM
[27] = second compound 0.316 µM, first compound 10 µM
[28] = second compound 1 µM, first compound 10 µM
[29] = second compound 3.16 µM, first compound 10 µM
[30] = second compound 10 µM, first compound 10 µM
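Note: spheroids exposed to agents for 7 days.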
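Throughout, for viability, T/C: 100% = DMSO vehicle control viability.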

SMILES: CC1COCCN1c1cc(-c2ccnn2C)c2ccnc(-c3ccn[nH]3)c2n1 (stereo not given) + COc1cc2nc(C)nc(NC(C)c3cc(N)cc(C(F)(F)F)c3)c2cc1OC1CCOC1
- IC50 (second compound 0.1 µM): 14.9 nM
- IC50 (second compound 0.316 µM): 11 nM
- IC50 (second compound 1 µM): 11.3 nM
- IC50 (second compound 3.16 µM): 10.5 nM
- IC50 (second compound 10 µM): < 10 nM
- viability, T/C (second compound 0.1 µM, first compound 0.01 µM): 62%
- viability, T/C [1]: 26.8%
- viability, T/C [2]: 16.5%
- viability, T/C [3]: 12.8%
- viability, T/C [4]: 11.5%
- viability, T/C [5]: 12.2%
- viability, T/C (second compound 0.316 µM, first compound 0.01 µM): 52.5%
- viability, T/C [6]: 24.2%
- viability, T/C [7]: 13.1%
- viability, T/C [8]: 12%
- viability, T/C [9]: 11.6%
- viability, T/C [10]: 11.6%
- viability, T/C (second compound 1 µM, first compound 0.01 µM): 53.5%
- viability, T/C [11]: 21.4%
- viability, T/C [12]: 12.4%
- viability, T/C [13]: 10.3%
- viability, T/C [14]: 10%
- viability, T/C [15]: 11%
- viability, T/C (second compound 3.16 µM, first compound 0.01 µM): 51.4%
- viability, T/C [16]: 19.5%
- viability, T/C [17]: 9.99%
- viability, T/C [18]: 9.71%
- viability, T/C [19]: 9.06%
- viability, T/C [20]: 9.91%
- viability, T/C (second compound 10 µM, first compound 0.01 µM): 41.9%
- viability, T/C [21]: 20.9%
- viability, T/C [22]: 9.39%
- viability, T/C [23]: 9.15%
- viability, T/C [24]: 7.92%
- viability, T/C [25]: 6.55%

SMILES: CC1OCC2(CCN(c3cnc(Sc4ccnc(N)c4Cl)c(N)n3)CC2)C1N (stereo not given) + COc1cc2nc(C)nc(NC(C)c3cc(N)cc(C(F)(F)F)c3)c2cc1OC1CCOC1
- IC50 (second compound 0.1 µM): 118 nM
- IC50 (second compound 0.316 µM): 54.9 nM
- IC50 (second compound 1 µM): < 31.6 nM
- IC50 (second compound 3.16 µM): < 31.6 nM
- IC50 (second compound 10 µM): < 31.6 nM
- viability, T/C [1]: 66.7%
- viability, T/C [2]: 49.4%
- viability, T/C [3]: 41.4%
- viability, T/C [4]: 33%
- viability, T/C [5]: 24.1%
- viability, T/C [26]: 21.1%
- viability, T/C [6]: 52.5%
- viability, T/C [7]: 47.9%
- viability, T/C [8]: 40.2%
- viability, T/C [9]: 27.5%
- viability, T/C [10]: 26.1%
- viability, T/C [27]: 19.1%
- viability, T/C [11]: 43.5%
- viability, T/C [12]: 34.6%
- viability, T/C [13]: 31.1%
- viability, T/C [14]: 24.7%
- viability, T/C [15]: 19.4%
- viability, T/C [28]: 20.6%
- viability, T/C [16]: 46.6%
- viability, T/C [17]: 33.7%
- viability, T/C [18]: 29.6%
- viability, T/C [19]: 17.7%
- viability, T/C [20]: 13.8%
- viability, T/C [29]: 16.9%
- viability, T/C [21]: 49.2%
- viability, T/C [22]: 35.6%
- viability, T/C [23]: 17.5%
- viability, T/C [24]: 12.9%
- viability, T/C [25]: 11.5%
- viability, T/C [30]: 11.4%

SMILES: Cn1nccc1Nc1nccc(-c2cc3c(s2)C(C)(C)N(CCN2CCOCC2)C3=O)n1 + COc1cc2nc(C)nc(NC(C)c3cc(N)cc(C(F)(F)F)c3)c2cc1OC1CCOC1
- IC50 (second compound 0.1 µM): 343 nM
- IC50 (second compound 0.316 µM): 258 nM
- IC50 (second compound 1 µM): 188 nM
- IC50 (second compound 3.16 µM): 324 nM
- IC50 (second compound 10 µM): 358 nM
- viability, T/C [1]: 70.7%
- viability, T/C [2]: 76.1%
- viability, T/C [3]: 50.3%
- viability, T/C [4]: 38.7%
- viability, T/C [5]: 30.8%
- viability, T/C [26]: 29.9%
- viability, T/C [6]: 75.3%
- viability, T/C [7]: 61.8%
- viability, T/C [8]: 48.1%
- viability, T/C [9]: 34.8%
- viability, T/C [10]: 30.6%
- viability, T/C [27]: 26.1%
- viability, T/C [11]: 65.9%
- viability, T/C [12]: 57.8%
- viability, T/C [13]: 43%
- viability, T/C [14]: 35.6%
- viability, T/C [15]: 30%
- viability, T/C [28]: 27.4%
- viability, T/C [16]: 70.7%
- viability, T/C [17]: 68.1%
- viability, T/C [18]: 46.3%
- viability, T/C [19]: 38%
- viability, T/C [20]: 29.1%
- viability, T/C [29]: 22.6%
- viability, T/C [21]: 75.5%
- viability, T/C [22]: 66.9%
- viability, T/C [23]: 51.7%
- viability, T/C [24]: 36.7%
- viability, T/C [25]: 22.7%
- viability, T/C [30]: 24.9%
